These results are taken from patent US20260174672A1, “COMPLEX FOR IMPROVING SKIN CONDITION” (LG H&H CO., LTD., priority 2022, published 2026).

For data set [1], the system named is hyaluronic acid production in human dermal fibroblasts. The data set is described as follows: Hyaluronic acid synthesis effect in vitro (Hyaluronan ELISA). Type of data set: cell-based. To be noted: 24 hours, concentrations of Table 2, (sample − negative control) ÷ negative control × 100. From the text: (§1) For the evaluation of in vitro skin improvement efficacy, chondroitin sulfate (CS), glutamine (Q), arginine (R), Examples 1 and 2 (CS-R complex and CS-Q complex), and Comparative Examples 1 and 2 (CS/R mixture and CS/Q mixture) were used as culture solutions, and were ultimately included at the concentrations shown in the following Table 2 in each evaluation.
To compare the skin moisturizing effects of chondroitin sulfate (CS), arginine (R), and glutamine (Q), a simple mixture of chondroitin sulfate and an amino acid (CS/AA mixture), and a chondroitin sulfate-amino acid complex (CS-AA complex), human dermal fibroblasts were used to confirm whether the production of hyaluronic acid was increased.
Specifically, fibroblasts were cultured in a DMEM medium containing 10% FBS until the cells occupied 80% of the culture dish. Subsequently, the cells were treated with each sample at a predetermined concentration according to Table 2 for 24 hours, and then the concentration of hyaluronic acid was measured using a Hyaluronan ELISA kit (R&D systems, catalog No. DY3614-05).

In data set [2] the test system is type I collagen (procollagen type 1-C propeptide, PICP) in human fibroblasts. The data set is described as follows: Collagen synthesis effect in vitro (PICP EIA). The class given is cell-based. To be noted: 48 hours, concentrations of Table 2, (sample − negative control) ÷ negative control × 100.
Text: as §1
To compare the wrinkle amelioration effects of chondroitin sulfate (CS), arginine (R), and glutamine (Q), a simple mixture of chondroitin sulfate and an amino acid (CS/AA mixture), and a chondroitin sulfate-amino acid complex (CS-AA complex), the effect of promoting the synthesis of type I collagen was confirmed using skin fibroblasts. For the evaluation, procollagen type 1-C propeptide (PICP), which is typically synthesized in the highest amount in fibroblasts, was quantified.
Specifically, human fibroblasts were aliquoted at 1×10^5 cells/well in a 48-well culture plate and cultured in a Dulbecco's Modified Eagle's Medium (DMEM, Gibco) medium containing 10% fetal bovine serum (FBS) for 24 hours. Subsequently, the medium was replaced with a serum-free DMEM medium containing 2 wt % of each culture solution according to Table 2 to treat cells with an analyte for 48 hours. Next, 20 μl of the culture supernatant was taken to measure the degree of collagen increase at each concentration at 450 nm using a Procollagen Type-1-C-peptide Enzyme Immuno Assay (PICP EIA) kit.

Another data set relates to human fibroblasts. The data set is described as follows: Cell activity effect in vitro (CCK-8). Type of data set: cell-based. To be noted: 48 hours, CCK-8, concentrations of Table 2, (sample − negative control) ÷ negative control × 100, in %.
Text: as §1
To compare the effects of chondroitin sulfate (CS), arginine (R), and glutamine (Q), a simple mixture of chondroitin sulfate and an amino acid (CS/AA mixture), and a chondroitin sulfate-amino acid complex (CS-AA complex) on skin cell activity, human fibroblast culture was used to confirm whether cell activity was increased.
Specifically, human fibroblasts were aliquoted at 5×10^3 cells/well and cultured in a DMEM medium containing 10% FBS for 24 hours. Subsequently, the culture medium was removed, and the cells were treated with each sample at a predetermined concentration according to Table 2 for 48 hours. Then, a reagent provided in a CCK-8 kit (DOJINDO, Cell Counting Kit-8, catalog No. CK04) was added, the resulting mixture was incubated for 4 hours, and then absorbance was measured at 450 nm using an ELISA reader.

The subject of data set [3] is Raw 264.7 cells (NO production). The data set is described as follows: Suppression of NO production in LPS-treated macrophages (Griess). Particulars: Raw264.7 cells, sample 30 minutes then 500 ng/ml LPS 18 hours, concentrations of Table 2. Type of data set: cell-based, mouse.
Text: as §1
To compare the skin soothing effects of chondroitin sulfate (CS), arginine (R), and glutamine (Q), a simple mixture of chondroitin sulfate and an amino acid (CS/AA mixture), and a chondroitin sulfate-amino acid complex (CS-AA complex), mouse macrophage cell line Raw 264.7 cells (ATCC, catalog No. CRL-2788) was used to confirm whether the production of NO was suppressed.
Specifically, Raw264.7 cells were aliquoted at 1 to 2×10^5 cells/ml in a 24-well tissue culture plate and cultured in a DMEM medium containing 10% FBS for 24 hours. The culture was carried out in a 5% CO2 incubator. Subsequently, the medium was replaced with a serum-free medium, and the cells were starved for 12 hours, and then treated with each sample at a predetermined concentration according to Table 2 for 30 minutes. After the sample treatment was completed, the cells were treated with 500 ng/ml lipopolysaccharides (LPS, SIGMA, catalog No. L43901) and then cultured for an additional 18 hours. Next, the culture supernatant was taken, transferred to a 96-well tissue culture plate and reacted with GREISS reagent (SIGMA, catalog No. G4410) at room temperature for 15 minutes, and then absorbance was measured at 540 nm using an ELISA reader. Thereafter, NO was quantified using the measured absorbance, and the reduction rate of NO produced in the experimental group compared to the positive control treated with 20 μg/ml of L-NMMA was calculated as (the value of the positive control−the value of the sample treatment group)÷the value of the negative control×100, which was used as a NO production suppression ability.

Data set [4] relates to Zonula Occludens-1 (ZO-1) in HaCaT cells. The data set is described as follows: mRNA expression of tight junction protein ZO-1 (real-time PCR). The class given is cell-based, human. Particulars: 24 hours, concentrations of Table 2, (sample − negative control) ÷ negative control × 100.
Text: as §1
To compare the skin barrier recovery effects of chondroitin sulfate (CS), glutamine (Q), a simple mixture of chondroitin sulfate and glutamine (CS/Q mixture), and a chondroitin sulfate-glutamine complex (CS-Q complex), it was confirmed whether the expression of Zonula Occludens-1 (ZO-1), one of the proteins that make up the tight junctions at the intercellular junctions in the skin barrier, was increased.
Specifically, human keratinocyte cell line HaCaT cells were first cultured at 37° C. in a 5% CO2 environment in a DMEM medium (Gibco, Waltham, MA, USA) supplemented with 10% fetal bovine serum (FBS, Gibco, Waltham, MA, USA), […] penicillin, and […] streptomycin. […] The concentration of the extracted RNA was quantified, and 1 μg of RNA was reacted with a cDNA synthesis kit (ET21100, PhileKorea Technology) at 42° C. for 30 minutes and 72° C. for 10 minutes to synthesize cDNA. […]

Data set [5] can be described thus: Zeta-potential analysis by dynamic light scattering (Zetasizer Nano-ZS). Type of data set: physicochemical. To be noted: dispersed in distilled water, triplicate, several peaks printed with their share (%). The procedure: To analyze the binding characteristics in the complexes of Examples 1 and 2, particle size analysis and zeta-potential analysis were performed. Chondroitin sulfate (CS), arginine (R), and glutamine (Q), a simple mixture of chondroitin sulfate and arginine or glutamine (CS/R or CS/Q mixture), and a complex of chondroitin sulfate and arginine or glutamine (CS-R or CS-Q complex) were analyzed by dynamic light scattering using a Zetasizer Nano-ZS (Malvern Instruments, Worcester, UK) to measure the particle size (effective dynamic diameter), particle size distribution and zeta potential of the samples dispersed on a colloid. Samples for the measurements were prepared by being dispersed in distilled water, and an automatic temperature-controlled cell with a scattering angle of 90° and software provided by the manufacturer were used. After measurement was conducted in triplicate for each sample, a zeta-potential value was calculated, and the results are shown in the following Table 1.

Data set [6] relates to Staphylococcus epidermidis. The data set is described as follows: Growth rate of beneficial skin bacterium (optical density). Type of data set: cell-based. Particulars: TSB medium, 30 to 37° C., 6 to 18 hours, concentrations of Table 2; relative to negative control. The procedure:
To evaluate the prebiotic ability of Example 2, the degrees of enhancement in beneficial bacteria among the skin resident flora were compared before and after the CS or Example 2 treatment. Staphylococcus epidermidis was selected as a representative beneficial bacterium, and the growth rates of the beneficial bacterium were compared before and after treatment with the materials.
The growth rate of the beneficial bacterium was evaluated by the following method. A sterile liquid medium was prepared using a commercial tryptic soy broth (TSB, DFICO) medium, and a glycerol stock of S. epidermidis was inoculated into the sterile liquid TSB medium and pre-cultured at 30 to 37° C. for 6 to 18 hours. Such a pre-culture was performed once to twice. Thereafter, chondroitin sulfate (CS) and Example 2 were added to a sterile liquid TSB medium at each predetermined concentration according to Table 2, and the preculture solution was inoculated to culture cells at 30 to 37° C. for 6 to 18 hours.
After culture, the optical density (OD) immediately after inoculation and the optical density during the stationary phase of growth were measured, and the ratio of these values (growth rate) was compared. […] After the evaluation was carried out three times, the average growth rate, the standard deviation, and the like were calculated, and then the significance was verified by a t-test.

Regarding `CC1=C(/C=C/C(C)=C/C=C/C(C)=C/C(=O)O)C(C)(C)CCC1` [Retinoic acid], the “Hyaluronic acid synthesis ability” value in data set [1] was determined as 16.8.
Turning to `NC(=O)CC[C@H](N)C(=O)O` [Glutamine (Q), glutamine], the “Collagen type 1 synthesis ability” value in data set [2] is listed as 2.78. The Cell activity ability in the data set on human fibroblasts is reported as −11.66. For the same molecule, the “Hyaluronic acid synthesis ability” value in data set [1] was 2.8. For the same molecule, the “NO production suppression ability” value in data set [3] worked out at 20.4. For the same molecule, in data set [4], the ZO-1 expression ability is reported as 11.0.
Take “chondroitin sulfate [Chondroitin sulfate (CS)]”: in data set [5], the “Zeta potential (mV)” value was −18 mV. Moreover, the “Collagen type 1 synthesis ability” value in data set [2] amounted to 3.55. This molecule also yielded a Cell activity ability in the data set on human fibroblasts of 8.74. The “Hyaluronic acid synthesis ability” value in data set [1] came to 1.8. Moreover, in data set [3], the “NO production suppression ability” value is listed as 25.6. This molecule displayed a ZO-1 expression ability in data set [4] of 25.0. The “S. epidermidis growth rate (%)” value in data set [6] is given as 6.081%.
Regarding `N=C(N)NCCC[C@H](N)C(=O)O` [Arginine (R), arginine], in data set [5], the “Zeta potential (mV)” value is −4 mV. The “Collagen type 1 synthesis ability” value in data set [2] was −12.58. The Cell activity ability in the data set on human fibroblasts is −12.79. Further, the “Hyaluronic acid synthesis ability” value in data set [1] is −2.1. Moreover, the “NO production suppression ability” value in data set [3] turned out to be 30.3.
TGF-b: the “Collagen type 1 synthesis ability” value in data set [2] amounted to 21.15.
